Reference: PubChem BioAssay (NCI)
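Growth conditions: 96-well plates. Treatment: test compound, 48 hours, 5 concentrations. Analysis: linear interpolation between bracketing concentrations; unreached endpoints set to highest concentration. At the GI50, growth is halved. Definition used: TGI = concentration required for complete inhibition of growth.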

Key:
Assay in all cases: NCI tumour cell line growth inhibition, 48 h
IGROV1 ovarian = tested on: IGROV1 ovarian
OVCAR-3 ovarian = tested on: OVCAR-3 ovarian
ACHN renal = tested on: ACHN renal
OVCAR-8 ovarian = tested on: OVCAR-8 ovarian
A549 NSCLC = tested on: A549 NSCLC
NCI-H460 lung = tested on: NCI-H460 lung
OVCAR-4 ovarian = tested on: OVCAR-4 ovarian
HOP-92 NSCLC = tested on: HOP-92 NSCLC
NCI/ADR-RES ovarian = tested on: NCI/ADR-RES ovarian
SK-MEL-2 melanoma = tested on: SK-MEL-2 melanoma

Structure (SMILES)	GI50 (IGROV1 ovarian) [µM]	TGI (IGROV1 ovarian) [µM]	GI50 (OVCAR-3 ovarian) [µM]	TGI (OVCAR-3 ovarian) [µM]	GI50 (ACHN renal) [µM]	TGI (ACHN renal) [µM]	GI50 (OVCAR-8 ovarian) [µM]	TGI (OVCAR-8 ovarian) [µM]	GI50 (A549 NSCLC) [µM]	TGI (A549 NSCLC) [µM]	GI50 (NCI-H460 lung) [µM]	TGI (NCI-H460 lung) [µM]	GI50 (OVCAR-4 ovarian) [µM]	TGI (OVCAR-4 ovarian) [µM]	GI50 (HOP-92 NSCLC) [µM]	TGI (HOP-92 NSCLC) [µM]	GI50 (NCI/ADR-RES ovarian) [µM]	TGI (NCI/ADR-RES ovarian) [µM]	GI50 (SK-MEL-2 melanoma) [µM]	TGI (SK-MEL-2 melanoma) [µM]
Cc1cc2c(C(C)C)c(O)c(O)c(/C=N/O)c2c(O)c1-c1c(C)cc2c(C(C)C)c(O)c(O)c(/C=N/O)c2c1O	3.54	16	1.69	10.1	2.04	7.45	2.94	13.2	2.69	12.1	2.19	6.72	1.33	9.69	2.89	13.5	3.4	15.1	3.47	13.8
O=C(NNC1=NS(=O)(=O)c2ccccc2N1c1ccccc1)c1cnccn1	> 100	> 100	> 100	> 100	> 100	> 100	> 100	> 100	> 100	> 100	> 100	> 100	> 100	> 100	> 100	> 100	> 100	> 100	> 100	> 100
COc1ccc(-c2cc(-c3ccc(Cl)cc3)nc(SCCCC(=O)NO)n2)cc1OC	1.04	2.69	0.423	2.52	0.364	2.04	0.486	> 21	1.58	8.59	0.466	3.4	0.889	12.3	1.76	5.33	0.368	2.54	2.9	10.8
CCN(CC)CCOc1ccc(/C(=C(\C)Cc2ccc(OC)cc2)c2ccc(O)cc2)cc1	2.98	10.3	1.68	3.21	1.66	3.1	2.12	5.14	1.83	3.56	1.86	3.68	2.95	9.91	0.588	2.61	2.43	7.74	1.94	3.71
CCOC(=O)C(Cc1ccccc1)n1c(O)c(/C=N/c2ncc(Cc3ccc(Cl)cc3Cl)s2)sc1=S (stereo not given)	3.73	71.5	2.84	9.96	2.92	> 100	2.07	> 100	3.68	> 100	2.09	12.4	3.22	> 100	1.65	6.22	2.56	15.1	1.31	5.68
CC1(C)CCC2(C(=O)O)C(O)CC3(C)C(=CCC4C5(C)CCC(OC6OCC(O)C(O)C6OC6OCC(O)C(O)C6OC6OCC(O)C(OC7OC(CO)C(O)C(O)C7O)C6O)C(C)(C)C5CCC43C)C2C1 (stereo not given)		> 100		> 100		> 100		> 100		> 100		> 100		88.7		82.7		> 100		76.3
Cn1cc(Nc2nccc(-c3ccc4c(c3)CN(C3COC3)CC[C@H]4NC(=O)c3cn(C(C)(C)C)nn3)n2)cn1	32	> 100	> 100	> 100	66.3	> 100	> 100	> 100	86.8	> 100	85.9	> 100	> 100	> 100	16	89.7	> 100	> 100	> 100	> 100
C/C=C(/C)C(=O)OC1C=C(CO)C(=O)C(OC(=O)C2(C)OC2C)C1C(C)C (stereo not given)	1.99	4.55	1.17	2.45	1.48	2.81	2.07	5.54	2.6	7.7	2.93	8.27	1.93	3.91	1.65	3.33	3.18	17.4	1.85	3.59
C=C1CC[C@@](C)(c2cc(Br)c(C)cc2OC(C)=O)[C@H]1C	13.2	29.4	14.6	29.2	13.7	27.3	13.2	27.8	12.3	26.5	11.3	25	3.63	17.4	3.49	16.2	12.1	25	13.8	32.4
Oc1ccc(/C=N/NC(=S)Nc2ccccc2)nc1	3.68	> 100	0.405	> 100	0.552	> 100	0.586	> 100	2.33	26.3	2.77	> 100	0.579	> 100	0.439	6.92	1.43	> 100	1.54	44.1
COC(=O)C1C(=O)C(C(=O)OC)C2CCC1N2C (stereo not given)		> 100		> 72.1		> 100		> 100		> 100		> 100		> 100		> 77.3		> 100		63.5
CN1CCC(=C(c2ccc(Cl)cc2)c2ccccn2)CC1	78.7	> 100	> 100	> 100	> 100	> 100	> 100	> 100	> 100	> 100	> 100	> 100	> 100	> 100	16.7	> 100	> 100	> 100	> 100	> 100
Cc1ccc(/C=C(/C#N)n2nnc3cccc(F)c32)cc1	0.453	10.6	0.227	0.536	0.579	4.46	0.594	> 100	0.696	44.5	0.35	2.13	1.01	33.1	0.309	4.75	0.159	0.848	0.522	19
